From patent US20210115104A1, “AMYLIN ANALOGUES” (Zealand Pharma A/S, priority 2015, published 2021) come the findings set out here.

*1 amine or outer side, *2 acyl side, *3 side chain or, on linkers, in order; H or OH if unused. Where a SMILES comes first, the peptide text is derived from it. Bridges are numbered along the chain shown (N, C = ends). [ ]: non-standard residue; d: D form. The star is where a group is joined. C20 diacid = O=C(O)CCCCCCCCCCCCCCCCCCC(=O)*; γGlu = O=C(O)[C@H](CCC(=O)[*:2])N[*:1]; Hyp = O=C(O)[C@@H]1C[C@@H](O)CN1; NMeI = CC[C@H](C)[C@H](NC)C(=O)O; Sar = CNCC(=O)O

Data set [1] in a line: Assessment of physical stability (Thioflavin T fibrillation). Format: physicochemical. Further details: key: FND = fibrillation not detected; FD = fibrillation detected. Particulars: 1 mg/ml, 40° C., ThT; for Fibrillation pH 4.0 (Ac): 50 mM acetate buffer pH 4.0, 96 hours; for Fibrillation pH 7.0 (His): 50 mM histidine buffer pH 7.0, 96 hours; for Fibrillation pH 7.0 (Phos.): 50 mM phosphate buffer pH 7.0, 96 hours. The method, then:
Solutions containing (i) 1 mg/ml of test peptide, 40 μM ThT and 50 mM phosphate (Ph) buffer (pH 7.0), (ii) 1 mg/ml of test peptide, 40 μM ThT and 50 mM histidine (His) buffer (pH 7.0), and (iii) 1 mg/ml of test peptide, 40 μM ThT and 50 mM acetate (Ac) buffer (pH 4.0), were loaded in a 96-well black fluorescence plate (clear bottom) in triplicate. Data were collected at fixed intervals of 10 min, each preceded by 300 s of automixing (agitation), over a period of 96 hours at 40° C. Physical stability, expressed as lag-time of fibril formation (in hours), was defined as the intersection between two linear regressions representing the initial stable phase and the growth phase.

The nature of data set [2]: Assessment of chemical stability (RP-HPLC normalized purity). Particulars: for Normalized purity after 7 days, 40° C., pH 4: pH 4, 0.2 mg/ml; for Normalized purity after 7 days, 40° C., pH 4 / Normalized purity after 7 days, 40° C., pH 6 / Normalized purity after 7 days, 40° C., pH 7.5 / Normalized purity after 7 days, 40° C., pH 9: Table 1; for Normalized purity after 7 days, 40° C., pH 6: pH 6, 0.2 mg/ml; for Normalized purity after 7 days, 40° C., pH 7.5: pH 7.5, 0.2 mg/ml; for Normalized purity after 7 days, 40° C., pH 9: pH 9, 0.2 mg/ml. In kind it is physicochemical. Here is the method:
Samples of each test peptide were dissolved in MilliQ™ water, and the pH of the solution was adjusted to pH 4, pH 6, pH 7.5 or pH 9, respectively, using either HCl or NaOH. The final peptide concentration was 0.2 mg/ml. Samples were placed in glass vials and incubated at 40° C. The samples were analyzed by RP-HPLC on a C8 column with gradient elution using an ammonium formate/water eluent system, or on a C18 column with gradient elution using a trifluoroacetic acid/water eluent system. The area-percentage (area-%) of the main peak after incubation time T=t (relative to time T=0) was determined by UV spectroscopy at 220 nm.
The purity was first determined as follows:
Purity(area-%)=(area of main peak/total area of all peaks)×100.
The purity was then normalized between time points by setting purity at time 0 (T=0) to 100 for each pH value for a given peptide, as follows:
Normalised area-% at time t (T=t)=[area-%(T=t)/area-%(T=0)]×100.
The normalized purity values in Table 1 were determined after 7 days of incubation.
The chemical stability assessment described in Example 6 was repeated for four pairs of compounds, each differing only by the presence or absence of an Asn-Asn (N—N) doublet at positions 21 and 22.

Regarding `CC[C@H](C)[C@H](NC(=O)[C@@H]1CCCN1C(=O)CNC(=O)[C@H](Cc1ccccc1)NC(=O)[C@H](CC(N)=O)NC(=O)[C@H](CC(N)=O)NC(=O)[C@H](CO)NC(=O)[C@H](CO)NC(=O)[C@H](Cc1c[nH]cn1)NC(=O)[C@H](Cc1c[nH]cn1)NC(=O)[C@H](CC(C)C)NC(=O)[C@H](Cc1ccccc1)NC(=O)[C@H](CCC(=O)O)NC(=O)[C@H](C)NC(=O)[C@H](CC(C)C)NC(=O)[C@H](CCCNC(=N)N)NC(=O)[C@H](CCC(N)=O)NC(=O)[C@@H](NC(=O)[C@H](C)NC(=O)[C@@H]1CSSC[C@H](NC(=O)[C@H](CCCNC(=N)N)NC(=O)CC[C@H](NC(=O)CCCCCCCCCCCCCCCCCCC(=O)O)C(=O)O)C(=O)N[C@@H](CC(N)=O)C(=O)N[C@@H]([C@@H](C)O)C(=O)N[C@@H](C)C(=O)N[C@@H]([C@@H](C)O)C(=O)N1)[C@@H](C)O)C(=O)N[C@@H](CC(C)C)C(=O)N1CCC[C@H]1C(=O)N1CCC[C@H]1C(=O)N[C@H](C(=O)N[C@@H](CC(N)=O)C(=O)N[C@H](C(=O)NCC(=O)N[C@@H](CO)C(=O)N[C@@H](CC(N)=O)C(=O)N[C@H](C(=O)N1CCC[C@H]1C(N)=O)[C@@H](C)O)C(C)C)[C@@H](C)O` [NN96, N-α-[(S)-4-carboxy-4-(19-carboxynonadecanoylamino)butyryl]-[Arg1, Glu14, His17, Pro37]-pramlintide-NH2, reference compound] ({C20 diacid-γGlu}-RCNTATCATQRLAEFLHHSSNNFGPILPPTNVGSNTP-NH2; disulfide 2-7), in data set [1], the “Fibrillation pH 4.0 (Ac)” value is “FND”, the “Fibrillation pH 7.0 (His)” value is “FD” and the “Fibrillation pH 7.0 (Phos.)” value was “FD”. Also, in data set [2], the “Normalized purity after 7 days, 40° C., pH 4” value is given as “A (A = >90%)”; the “Normalized purity after 7 days, 40° C., pH 6” value was “A (A = >90%)”; the “Normalized purity after 7 days, 40° C., pH 7.5” value is on record as “B (B = 70-90%)”; the “Normalized purity after 7 days, 40° C., pH 9” value is given as “B (B = 70-90%)”. Moreover, the “Normalized purity pH 4 (Table 5)” value in data set [2] (pH 4, repeat of Example 6 for pairs with/without Asn-Asn at 21-22) is given as “A (A = >90%)”. Further, the “Normalized purity pH 6 (Table 5)” value in data set [2] (pH 6, repeat of Example 6 for pairs with/without Asn-Asn at 21-22) is listed as “A (A = >90%)”. Moreover, in data set [2] (pH 7.5, repeat of Example 6 for pairs with/without Asn-Asn at 21-22), the “Normalized purity pH 7.5 (Table 5)” value is “B (B = 70-90%)”. Also, the “Normalized purity pH 9 (Table 5)” value in data set [2] (pH 9, repeat of Example 6 for pairs with/without Asn-Asn at 21-22) is given as “B (B = 70-90%)”.

`CC[C@H](C)[C@@H](C(=O)N[C@@H](CC(C)C)C(=O)N[C@@H](CO)C(=O)N[C@@H](CO)C(=O)N[C@H](C(=O)N[C@@H](CCC(=O)O)C(=O)N[C@H](C(=O)NCC(=O)N[C@@H](CO)C(=O)N[C@@H](CC(N)=O)C(=O)N[C@H](C(=O)N1C[C@H](O)C[C@H]1C(N)=O)[C@@H](C)O)C(C)C)[C@@H](C)O)N(C)C(=O)[C@H](C)NC(=O)CN(C)C(=O)[C@H](Cc1ccccc1)NC(=O)[C@H](CO)NC(=O)[C@H](CO)NC(=O)[C@H](CCCNC(=N)N)NC(=O)[C@H](CCC(=O)O)NC(=O)[C@H](CC(C)C)NC(=O)[C@H](Cc1ccccc1)NC(=O)[C@H](Cc1c[nH]cn1)NC(=O)[C@H](C)NC(=O)[C@H](CC(C)C)NC(=O)[C@H](CCCNC(=N)N)NC(=O)[C@H](CCC(=O)O)NC(=O)[C@@H](NC(=O)[C@H](C)NC(=O)[C@@H]1CSSC[C@H](NC(=O)[C@H](CCCNC(=N)N)NC(=O)CC[C@H](NC(=O)CCCCCCCCCCCCCCCCCCC(=O)O)C(=O)O)C(=O)NCC(=O)N[C@@H]([C@@H](C)O)C(=O)N[C@@H](C)C(=O)N[C@@H]([C@@H](C)O)C(=O)N1)[C@@H](C)O` [Compound 8, [19CD]-isoGlu-R-C( )-GTAT-C( )-ATERLAHFLERSSF-Gly(Me)-A-Ile(Me)-LSSTEVGSNT-Hyp-NH2] ({C20 diacid-γGlu}-RCGTATCATERLAHFLERSSF[Sar]A[NMeI]LSSTEVGSNT[Hyp]-NH2; disulfide 2-7): in data set [1], the “Fibrillation pH 4.0 (Ac)” value is on record as “FND”, the “Fibrillation pH 7.0 (His)” value is reported as “FND” and the “Fibrillation pH 7.0 (Phos.)” value is on record as “FND”. Moreover, in data set [2], the “Normalized purity after 7 days, 40° C., pH 4” value is “A (A = >90%)”; the “Normalized purity after 7 days, 40° C., pH 6” value is listed as “B (B = 70-90%)”; the “Normalized purity after 7 days, 40° C., pH 7.5” value is “A (A = >90%)”; the “Normalized purity after 7 days, 40° C., pH 9” value is reported as “A (A = >90%)”.

For the compound `CC[C@H](C)[C@@H](C(=O)N[C@@H](CC(C)C)C(=O)N[C@@H](CO)C(=O)N[C@@H](CO)C(=O)N[C@H](C(=O)N[C@@H](CCC(=O)O)C(=O)N[C@H](C(=O)NCC(=O)N[C@@H](CO)C(=O)N[C@@H](CCC(=O)O)C(=O)N[C@H](C(=O)N1CCC[C@H]1C(N)=O)[C@@H](C)O)C(C)C)[C@@H](C)O)N(C)C(=O)[C@H](C)NC(=O)CN(C)C(=O)[C@H](Cc1ccccc1)NC(=O)[C@H](CO)NC(=O)[C@H](CO)NC(=O)[C@H](CCCNC(=N)N)NC(=O)[C@H](Cc1c[nH]cn1)NC(=O)[C@H](CC(C)C)NC(=O)[C@H](Cc1ccccc1)NC(=O)[C@H](CC(N)=O)NC(=O)[C@H](C)NC(=O)[C@H](CC(C)C)NC(=O)[C@H](CCCNC(=N)N)NC(=O)[C@H](CCC(N)=O)NC(=O)[C@@H](NC(=O)[C@H](C)NC(=O)[C@@H]1CSSC[C@H](NC(=O)[C@H](CCCNC(=N)N)NC(=O)CC[C@H](NC(=O)CCCCCCCCCCCCCCCCCCC(=O)O)C(=O)O)C(=O)N[C@@H](CC(N)=O)C(=O)N[C@@H]([C@@H](C)O)C(=O)N[C@@H](C)C(=O)N[C@@H]([C@@H](C)O)C(=O)N1)[C@@H](C)O` [Compound 3, [19CD]-isoGlu-R-C( )-NTAT-C( )-ATQRLANFLHRSSF-Gly(Me)-A-Ile(Me)-LSSTEVGSETP-NH2] ({C20 diacid-γGlu}-RCNTATCATQRLANFLHRSSF[Sar]A[NMeI]LSSTEVGSETP-NH2; disulfide 2-7), in data set [1], the “Fibrillation pH 4.0 (Ac)” value is “FD”, the “Fibrillation pH 7.0 (His)” value is given as “FD” and the “Fibrillation pH 7.0 (Phos.)” value is listed as “FD”. In data set [2], the “Normalized purity after 7 days, 40° C., pH 4” value is given as “A (A = >90%)”; the “Normalized purity after 7 days, 40° C., pH 7.5” value was “B (B = 70-90%)”; the “Normalized purity after 7 days, 40° C., pH 9” value was “B (B = 70-90%)”.
